Reference: patent US20240376514A1, “BACTERIAL BIOSENSORS FOR MONITORING AND DETECTION OF NAPHTHENIC ACIDS IN THE ENVIRONMENT” (THE GOVERNORS OF ATHABASCA UNIVERSITY, priority 2021, published 2024)

Assays:
[1] = test system: atuA; assay: atuA promoter-luxCDABE biosensor gene expression; assay type: cell-based; conditions: Pseudomonas OST1909
Method: Routine microbiology and gene expression assays using 96 well plates were performed to grow the biosensor strains in the presence of environmental water samples, and the light output from the biosensor was used as a proxy to indicate the concentration of naphthenic acids in the water.
In the fourth step, all plasmid-encoded genetic circuits were introduced back into Pseudomonas OST1909 for validation.
“SIGMA” and “Acros” indicate two sources of primarily acyclic NA mixtures. […] A post hoc Tukey HSD test was conducted with each compound and mixture to test significant relationships between each group (α=0.05, n=3).

[2] = test system: atu operon; conditions: stated as known; cited from earlier work

Structure (SMILES) | induction of the atu operon / atu genes [1] | induction of atu genes in Pseudomonas aeruginosa by acyclic terpenes [2]
CC(C)=CCCC(C)CC(=O)O (centres unmarked) [citronellic acid] | induce expression | 
CC(C)=CCCC(C)CCO (centres unmarked) [citronellol] | do not induce | induced
CC(C)=CCC/C(C)=C/CO [geraniol] | do not induce | induced
